Experimental data published in the supplement of paper PMC10307832.

Columns and labels:
Experiment in all cases: relative viability (nuclei count vs DMSO), 5 days (fraction); higher = more cells survive
[1] = compound: CCC1=CN=CN=C1N2CCN(CC2)CC3=NC4=C(N3)C=C(C=C4)C(F)(F)F + CC(=O)Nc1cccc(-n2c(=O)n(C3CC3)c(=O)c3c(Nc4ccc(I)cc4F)n(C)c(=O)c(C)c32)c1 [Trametinib] (partner 0.02 µM)
Summary of the method: (§1)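 Each reported value is a median over duplicate plates. It expresses relative viability: treated-well nuclei count divided by vehicle-well nuclei count. Lung cancer cell lines in 1536-well plates were dosed by pin tool a day after seeding, alone with one drug or with a fixed anchor-drug dose plus five library-drug doses (not always all listed) in √10 steps, and nuclei were counted after 5 days.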

[2] = compound: N=C1NC(=O)/C(=C/c2ccc(O)cc2)S1 [Mirin] + CC1(C)CCC(c2ccc(Cl)cc2)=C(CN2CCN(c3ccc(C(=O)NS(=O)(=O)c4ccc(N[C@H](CCN5CCOCC5)CSc5ccccc5)c(S(=O)(=O)C(F)(F)F)c4)cc3)CC2)C1 [Navitoclax] (partner 0.5 µM)
Summary of the method: as §1

[3] = compound: N=C1NC(=O)/C(=C/c2ccc(O)cc2)S1 [Mirin] + N=C(N)NC(=N)NCCc1ccccc1 [Phenformin] (partner 250 µM)
Summary of the method: as §1

[4] = compound: N=C1NC(=O)/C(=C/c2ccc(O)cc2)S1 [Mirin] + O=C(c1cc(Cc2n[nH]c(=O)c3ccccc23)ccc1F)N1CCN(C(=O)C2CC2)CC1 [Olaparib] (partner 8 µM)
Summary of the method: as §1

Cell Line | relative viability ([1]; first compound 0.04 µM) | relative viability ([1]; first compound 0.1265 µM) | relative viability ([1]; first compound 0.4 µM) | relative viability ([1]; first compound 1.265 µM) | relative viability ([1]; first compound 4 µM) | relative viability ([2]; first compound 0.25 µM) | relative viability ([2]; first compound 0.7906 µM) | relative viability ([2]; first compound 2.5 µM) | relative viability ([2]; first compound 7.906 µM) | relative viability ([2]; first compound 25 µM) | relative viability ([3]; first compound 0.25 µM) | relative viability ([3]; first compound 0.7906 µM) | relative viability ([3]; first compound 2.5 µM) | relative viability ([3]; first compound 7.906 µM) | relative viability ([3]; first compound 25 µM) | relative viability ([4]; first compound 0.25 µM) | relative viability ([4]; first compound 0.7906 µM) | relative viability ([4]; first compound 2.5 µM) | relative viability ([4]; first compound 7.906 µM) | relative viability ([4]; first compound 25 µM)
201T | 0.725 | 0.73 | 0.747 | 0.711 | 0.694 | 1.18 | 1.27 | 1.18 | 1.32 | 1.33 | 0.463 | 0.494 | 0.454 | 0.463 | 0.568 | 0.877 | 0.888 | 0.886 | 0.902 | 1.03
A549 |  |  |  |  |  | 1.09 | 1.38 | 1.08 | 1.32 | 1.31 | 0.129 | 0.138 | 0.159 | 0.189 | 0.235 | 0.342 | 0.229 | 0.333 | 0.243 | 0.367
A-427 | 0.631 | 0.731 | 0.675 | 0.615 | 0.637 | 0.942 |  | 0.955 | 0.941 | 1.11 | 0.311 |  | 0.363 | 0.266 | 0.348 | 0.769 | 0.682 | 0.631 | 0.766 | 0.766
ABC-1 |  |  |  |  |  |  |  |  |  |  | 0.263 | 0.21 | 0.269 | 0.257 | 0.206 | 0.887 | 0.618 | 0.78 | 0.593 | 0.41
BEN | 1.09 | 1.18 | 0.975 | 0.742 | 0.709 | 0.0987 | 0.0819 | 0.0674 | 0.0737 | 0.0559 | 0.255 | 0.288 | 0.266 | 0.248 | 0.273 | 0.958 | 0.987 | 1.21 | 0.962 | 0.638
CAL-12T | 0.256 | 0.352 | 0.356 | 0.267 | 0.37 | 0.854 | 1.49 | 1.26 | 1.26 | 1.66 | 0.627 |  | 0.665 | 0.591 | 0.657 | 0.733 | 0.821 | 0.668 | 0.658 | 0.531
COR-L23 | 0.569 | 0.682 | 0.524 | 0.47 | 0.583 | 1.02 | 1.06 | 1.04 | 1.07 | 0.966 | 0.465 | 0.46 | 0.45 | 0.469 | 0.481 | 0.395 | 0.319 | 0.313 | 0.365 | 0.319
COR-L 105 | 0.42 | 0.418 | 0.501 | 0.416 | 0.44 | 1.02 | 0.817 | 0.884 | 0.703 | 0.719 | 0.551 | 0.495 | 0.479 | 0.583 | 0.462 | 0.738 | 0.843 | 0.696 | 0.683 | 0.683
Calu-6 |  |  |  |  |  | 0.879 | 1 | 0.839 | 0.806 | 0.794 |  |  |  |  |  | 0.554 | 0.673 | 0.618 | 0.397 | 0.482
ChaGo-K-1 | 0.93 | 0.894 | 0.821 | 0.869 | 0.859 | 0.974 |  | 0.997 | 0.849 | 0.85 | 0.485 | 0.428 | 0.49 | 0.423 | 0.324 | 0.415 | 0.363 | 0.43 | 0.381 | 0.253
EBC-1 |  |  |  |  |  | 0.419 | 0.479 | 0.456 | 0.368 | 0.144 |  |  |  |  |  | 0.707 | 0.783 | 0.693 | 0.561 | 0.471
EKVX | 0.415 | 0.384 | 0.379 | 0.32 | 0.309 | 1.01 | 0.932 | 1.11 | 0.875 | 0.968 | 0.251 | 0.238 | 0.246 | 0.224 | 0.258 | 0.857 | 0.916 | 0.839 | 0.758 | 0.993
EMC-BAC-2 |  | 0.857 | 0.841 | 0.891 | 0.951 | 1.16 | 1.29 | 1.17 | 1.08 | 1.17 | 0.57 | 0.57 | 0.559 | 0.401 | 0.49 | 0.505 | 0.508 | 0.48 | 0.382 | 0.429
EPLC-272H | 0.289 | 0.26 | 0.32 | 0.284 | 0.325 | 1.08 |  | 1.09 | 0.965 | 0.808 | 0.354 |  | 0.307 | 0.254 | 0.234 | 0.867 | 0.682 | 0.812 | 0.661 | 0.228
H3255 | 0.639 | 0.583 | 0.572 | 0.522 | 0.599 | 0.499 | 0.59 | 0.628 | 0.513 | 0.47 | 0.33 | 0.379 | 0.408 | 0.271 | 0.361 | 0.55 | 0.539 | 0.541 | 0.537 | 0.547
HARA | 0.879 | 0.76 | 0.454 | 0.472 | 0.716 | 1.07 | 1.21 | 1.14 | 1.28 | 1.2 | 0.536 |  | 0.467 | 0.475 | 0.36 | 1.08 |  | 0.735 | 0.874 | 0.495
HCC-15 | 0.36 | 0.392 | 0.372 | 0.368 | 0.369 | 0.755 | 0.689 | 0.762 | 0.713 | 0.52 | 0.495 | 0.478 | 0.446 | 0.431 | 0.426 | 0.718 | 0.675 | 0.73 | 0.536 | 0.502
HCC-44 | 1.06 | 0.994 | 1.02 | 0.963 | 0.915 | 1 | 0.967 | 0.916 | 0.945 | 0.989 | 0.165 | 0.102 | 0.126 | 0.213 | 0.314 | 0.99 | 1.11 | 0.97 | 0.964 | 1.1
